Reference: patent US20220031800A1, “PEPTIDES FOR TREATING NON-EXUDATIVE MACULAR DEGENERATION AND OTHER DISORDERS OF THE EYE” (Allegro Pharmaceuticals, LLC, priority 2019, published 2022)
Square brackets hold non-standard residues; d marks the D form. Peptide text beside a SMILES is read from it. Cya = N[C@@H](CS(=O)(=O)O)C(=O)O

Tested on: primary human RPE cells
Assay: WST-1 cell viability of primary human RPE cells exposed to hydroquinone
Assay type: cell-based
Conditions: 0.4 mM risuteganib co-treatment with HQ 125-180 uM
Method: Purpose: To determine if risuteganib protects against hydroquinone (HQ)-mediated cell injury, elevated ROS level and reduced mitochondrial membrane potential (Δψm) in cultured human RPE cells. Elevated ROS levels increase oxidative stress in the cells, leading to reduced cell health and cell death. Loss of ΔΨm is a marker for early cell death. Methods: Primary human RPE cells were seeded on collagen-coated 96-well plates in triplicates at 8K, 10K and […] cells/well, respectively. Cells reached 80% to 100% confluence 24 hours after plating, and confluent cells were then grown for an additional 4 or 5 days until growth was density arrested. On day 6 after plating, cells in the plate upper half were loaded with 20 μM CM-H2DCFDA (measures ROS level) and in the plate lower half with 10 μM JC-1 (measures Δψm) for 30 minutes at 37° C. […] For the ROS and Δψm assays, a fluorescence plate reader was used to quantify ROS production (490-nm excitation, 522-nm emission), and green monomer of JC-1 (490-nm excitation, 522-nm emission) and red JC-1 aggregate (535-nm excitation, 590-nm emission), respectively. […] The WST reagent was quantified with a plate reader at 440 nm and a reference wavelength at 690 nm. Data were normalized to untreated control as 100% and were expressed as the mean±SD.

Question: `C[C@@H](O)[C@H](NC(=O)[C@H](CS(=O)(=O)O)NC(=O)CNC(=O)[C@H](CCCNC(=N)N)NC(=O)CN)C(=O)N1CCC[C@H]1C(=O)O` [risuteganib, Glycyl-L-arginylglycyl-3-sulfo-L-alanyl-L-threonyl-L-proline] (H-GRG[Cya]TP-OH) was tested. Which “Improvement of HQ-reduced cell viability” value did it give?
Answer: 16%
